Measurements published in PMC5357725, “Global update on the susceptibility of human influenza viruses to neuraminidase inhibitors, 2014–2015” (Antiviral Research, 2016).

Assays:
[1] = test system: B/Victoria-lineage neuraminidase (NA); type: biochemical, influenza B/Victoria-lineage virus
[2] = test system: B/Yamagata-lineage neuraminidase (NA); type: biochemical, influenza B/Yamagata-lineage virus

[H]/N=C(\N)N[C@H]1C=C(C(=O)O)O[C@@H]([C@H](OC)[C@H](O)CO)[C@@H]1NC(C)=O [Laninamivir, laninamivir]
inhibition class (NI, RI, HRI) [1]: NI (key: NI: B viruses <5-fold; RI: B viruses 5- to 50-fold; HRI: B viruses >50-fold)
inhibition class (NI, RI, HRI) [2]: NI (key: NI: B viruses <5-fold; RI: B viruses 5- to 50-fold; HRI: B viruses >50-fold)

CC(=O)N[C@H]1[C@H]([C@H](O)[C@H](O)CO)OC(C(=O)O)=C[C@@H]1N=C(N)N [Zanamivir, zanamivir]
inhibition class (NI, RI, HRI) [1]: NI (key: NI: B viruses <5-fold; RI: B viruses 5- to 50-fold; HRI: B viruses >50-fold)
